# Assay results published in patent US20050209336A1, “EP2 receptor agonists” (priority 2003, published 2005).
# Where two headings read alike, the source gives them in different places.
# Columns and labels:
# [1] = tested on: TNFα production by lymphocytes; test: Lymphocyte assay: TNFα production; format: cell-based, human; settings: inhibition of TNFα production by lymphocytes, mean of three donors; for EC50: read-out: Mean EC50; for Mean Log (EC50): log scale
# From the text: (§1) Lymphocytes are mononuclear leukocytes, which participate in specific immune responses to foreign antigens and in the manifestation of auto-immune diseases. T lymphocytes produce IL-2, a key factor for lymphocyte activation and proliferation, in response to antigen stimulation via the CD3-T cell receptor complex and the pathway involved in this response is the NF-AT. […] A lymphocyte assay was designed to model this response and to determine the effect of test compound on IL-2 production by anti-CD3-stimulated T cells isolated from peripheral blood. This assay uses a sub-optimal dose of an anti-CD3 monoclonal antibody (OKT3, 25 ng/ml) immobilised to a 96-well plate to stimulate a T cell response. The level of IL-2 released into the cell culture supernatants was quantified using a standard sandwich ELISA. Similarly, other cytokines such as TNFα and IFN-γ can also be measured in the same assay.
# (§2) Human peripheral blood mononuclear cells from healthy volunteers were isolated from whole blood by Ficoll-Hypaque density centrifugation and adherence to plastic. The non-adherent lymphocyte fraction was used to set up the lymphocyte assay and the adherent monocytes were then recovered by scraping and subsequently used in the monocyte assay.
# (§3) Lymphocytes were then seeded to a 96-well plate pre-coated with anti-CD3 monoclonal antibody (OKT3) at 25 ng/ml and immediately, the test compounds (Peak 1, mixture 1 acid; Peak 1, mixture 2 acid; AH-13205 racemate; PGE2) in appropriate dilutions were added to corresponding wells according to the experimental design. The plate was incubated for 24 hours at 37° C. with 5% CO2 in air and supernatants were recovered for ELISA analysis at the end of incubation period. The levels of IFN-γ was assessed by using the ProteoPlex 16 well human cytokine array assay kit according to the manufacturer's instruction.
# lymphocyte proliferation = test: Lymphocyte proliferation driven by immobilised anti-CD3 antibody; format: cell-based, human; settings: inhibition of lymphocyte proliferation, 72 h, mean of three donors; for EC50: read-out: Mean EC50; for Mean Log (EC50): log scale
# From the text: as §1, §2
# For the measurement of lymphocyte proliferation driven by immobilised anti-CD3 monoclonal antibody, the assay was set up in the same way as for the measurement of IL-2 release, except that the cells were cultured for 72 hours in the presence or absence of test compounds. Four hours prior to the termination of the proliferation assay, a novel tetrazolium compound solution supplied by Promega in the format of Cell Proliferation Assay Kit was added to individual wells according to the manufacturer's instruction. The plate was then placed back in the incubator for the remaining 4 hours and the […] reaction was measured using a spectrophotometer at an absorbent wavelength of 490 nm (SpectraMax, Molecular Devices) according to the manufacturer's instruction.
# [2] = tested on: IL-2 production by OKT3 activated T cells; test: Lymphocyte assay: IL-2 production by anti-CD3 (OKT3) stimulated T cells; format: cell-based, human; settings: inhibition of IL-2 production, 24 h; for EC50: read-out: Mean EC50; for Mean Log (EC50): log scale
# From the text: as §1, §2, §3
# [3] = tested on: human myometrial smooth muscle; test: Human myometrial activity: inhibition of electrical field stimulation (EFS) induced contractions; format: cell-based; settings: at 10^-4M, n=7 donors
# Experimental: The following describes an in vitro functional assay, using human myometrial smooth muscle, to determine the affinity of the test compounds at the EP2 receptor in human tissues.
# Sections of human myometrium were prepared from samples of surgically removed uterus longitudinal myometrial muscle strips (2 mm wide by 10 mm long) were then cut and suspended between stainless steel hooks in organ chambers containing oxygenated (95% O2/5% CO2) Krebs solution at 37° C. The composition of the Krebs solution was as follows: NaCl (118.2 mM), KCl (4.69 mM), MgSO4.7H2O (1.18 mM), KH2PO4 (1.19 mM), glucose (11.1 mM), NaHCO3 (25.0 mM), CaCl2.6H2O (2.5 mM), indomethacin 3×10^−6M.
# Tissues were placed under a tension equivalent to 25 mN and left overnight at room temperature. The following day the tissues were maintained at 37° C., washed and placed under a tension of 15 mN then allowed to equilibrate for a period of at least 30 minutes. Responses were recorded using isometric transducers coupled to an Apple Macintosh computer via a MacLab interface. After 60 minutes, the muscle sections of the human myometrium were stimulated electrically (15 ms pulse width, for 10 s every 100 s at 15V and 0.5-40 Hz) using parallel platinum wire electrodes and a Multistim D330 pulse stimulator. Upon electrical stimulation, the strips of human myometrial smooth muscle responded with a rapid contraction. Once the response to electrical stimulation had stabilised (stimulated responses differed by no more than 10%), the strips were exposed to increasing concentrations of test compounds (1×10^−7 to 1×10^−4M, incubated for at least 15 minutes at each concentration). At the end of the experiment, application of sodium nitroprusside (SNP, a nitric oxide donor that causes smooth muscle relaxation) (1×10^−4M) was used to produce a standard relaxatory response. To determine the affinity of the compounds, the concentration of test compound required to produce half-maximal effects (EC50) was calculated, as was the maximum response (calculated as a percentage of the standard response produced with SNP).
# human EP2 receptor [4] = biological target: T1, human EP2 receptor (Homo sapiens, UniProt P43116); test: cAMP production in HEK cells stably expressing the human EP2 receptor; format: cell-based; settings: 15 min stimulation, 4 experiments, read-out: Mean EC50
# T1 construct: expressed in transfected cells; host or cells: HEK cells (HEK-EP2)
# Experimental: The following describes an in vitro assay to determine the effect of compounds on cyclase production, that is, to determine their functional efficacy at the EP2 receptor.
# HEK cells stably expressing the human EP2 receptor were used for these assays. HEK-EP2 cells were cultured in 96-well, poly-L-lysine coated plates at a density of 50,000 cells/well, and grown to confluence in humidified […] at 37° C. Culture medium was DMEM supplemented with 10% foetal bovine serum, 100 U/ml penicillin, […], 2.5 µg/ml fungizone, 2 mM glutamine, 250 µg/ml geneticin and 200 µg/ml zeocin.
# On reaching confluence, culture media was rinsed off using DMEM with no additions, before 175 µl assay buffer (DMEM containing 1 mM 3-isobutyl-1-methylxanthine and 3 µM indomethacin) was added to each well. This was allowed to incubate for 1 hr before the cells were stimulated with the test compounds (in triplicate) at final concentrations of 10^−9M to 10^−5M for 15 minutes. The assay was terminated by the addition of 25 µl 1M hydrochloric acid. Plates were then frozen for a minimum of 12 hours or until required for radioligand displacement assay.
# Plates were thawed quickly at 37° C., and neutralised with 25 µl 1M sodium hydroxide. 30 µl of supernatant was transferred to 96-well Millipore (MAFNOB) plates coated with 0.1% Polyethylenimine. These supernatants were diluted by addition of 90[…]1 cAMP assay buffer (50 mM Tris, 5 mM EDTA, pH 7.0). A cAMP standard curve (10^−11M to 10^−5M) was constructed. 15 µl of 3′:5′-cAMP-dependent protein kinase (final concentration 8 µg/well), and 15 µl [^3H]-cAMP (final concentration 2 nM/well) were added to each well.
# Plates were incubated on ice for 2 hours, before bound and free radiolabel were separated by vacuum filtration harvesting on the Millipore manifold, using ice cold water as the termination buffer. Filter plates were allowed to dry overnight, before addition of 50 µl Microscint. Radioactivity was determined using the Microbeta Trilux scintillation counter. cAMP accumulation was determined from the standard curve, and the values plotted as pmoles cAMP/well.
# human EP2 receptor [5] = biological target: T1, human EP2 receptor; test: Radioligand ([3H]PGE2) competition displacement binding, human EP2 receptor membranes; settings: human EP2 membranes, [3H]PGE2 displacement, Cheng-Prusoff; mean of 4 experiments; read-out: pKi EP2 (converted)
# Experimental: (§4) Membranes were prepared from cells stably transfected with human EP receptor cDNA. In brief, cells were cultured to confluency, scraped from culture flasks, and centrifuged (800 g, 8 minutes, 4° C.). Cells were twice washed in ice cold homogenisation buffer containing 10 mMTris-HCl, 1 mM EDTA.2Na, 250 mM sucrose, 1 mM PMSF, 0.3 mM indomethacin, pH 7.4, homogenised and re-centrifuged as before. The supernatant was stored on ice and pellets re-homogenised and re-spun. Supernatants were pooled and centrifuged at 40000 g, 10 minutes, 4° C. Resultant membrane pellets were stored at −80° C. until use.
# (§5) For assay, membranes expressing human EP4, EP3, EP2 or EP1 receptors were incubated in Millipore (MHVBN45) plates containing assay buffer, radiolabelled [^3H]PGE2 and 0.1 to 10 000 nM concentrations of compounds. Incubations were performed at suitable temperatures and for suitable times to allow equilibrium to be reached. Non-specific binding was determined in the presence of 10 uM PGE2. Bound and free radiolabel was separated by vacuum manifold filtration using appropriate wash buffers, and bound radiolabel was determined by scintillation counting. Constituents of each of the buffers are included in table 4 below.
# (§6) The affinity or pKi of each compound for each receptor was calculated from the concentration causing 50% radioligand displacement (IC50) using the Cheng-Prusoff equation: [formula]
# (§7) This approach follows that set out in Kenakin, T. P., Pharmacologic analysis of drug receptor interaction. Raven Press, New York, 2nd edition.
# human EP3 receptor = biological target: T2, human EP3 receptor (Homo sapiens, UniProt P43115); test: Radioligand ([3H]PGE2) competition displacement binding, human EP3 receptor membranes; settings: [3H]PGE2 displacement, read-out: pKi EP3 (converted)
# T2 construct: expressed in transfected cells
# T2 sequence (P43115 1-390): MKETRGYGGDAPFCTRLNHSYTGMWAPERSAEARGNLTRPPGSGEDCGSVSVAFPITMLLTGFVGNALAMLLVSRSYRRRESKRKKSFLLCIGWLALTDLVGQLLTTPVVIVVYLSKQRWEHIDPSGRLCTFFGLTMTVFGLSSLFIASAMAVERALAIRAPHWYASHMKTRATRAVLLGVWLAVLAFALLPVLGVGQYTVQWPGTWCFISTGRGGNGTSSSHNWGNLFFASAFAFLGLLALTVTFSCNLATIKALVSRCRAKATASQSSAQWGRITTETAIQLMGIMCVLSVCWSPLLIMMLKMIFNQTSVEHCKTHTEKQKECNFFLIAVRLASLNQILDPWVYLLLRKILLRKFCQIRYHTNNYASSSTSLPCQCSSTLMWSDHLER
# Experimental: as §4, §5, §6, §7
# human EP4 receptor = biological target: T3, human EP4 receptor (Homo sapiens, UniProt P35408); test: Radioligand ([3H]PGE2) competition displacement binding, human EP4 receptor membranes; settings: [3H]PGE2 displacement, read-out: pKi EP4 (converted)
# T3 construct: expressed in transfected cells
# Experimental: as §4, §5, §6, §7
# [6] = tested on: TNFα production by alveolar macrophages; test: Alveolar macrophage assay: LPS-induced TNFα release; format: cell-based, human; settings: inhibition of TNFα production, LPS 1 μg/ml, 24 h, mean of three donors
# Experimental: Human lung parenchyma was cut into small pieces and perfused with ice-cold phosphate buffered saline (PBS) to remove contaminating blood and mucus. The tissues were then chopped with scissors in the presence of Minimum Essential Medium supplemented with penicillin, streptomycin, L-glutamine and DNase (0.25 mg/ml). The chopped tissues were shaken gently to dislodge the macrophages. A crude cell suspension was then obtained by the removal of the tissues with a sterile filter (150 μm pore size). The resulting cell suspension was spun and the cell pellet collected. Contaminating red blood cells were depleted with a red blood cell lysis buffer and the remaining cells washed twice with PBS by centrifugation. Alveolar macrophages were then purified from this cell preparation by using a positive selection method for CD14-molecule bearing cells using a VarioMac™ Separator and respective positive selection reagents and columns supplied by Miltenyi Biotec Ltd according to the manufacturer's instruction.
# For the assay, alveolar macrophages were resuspended in complete culture medium consisting of RPMI1640 supplemented with 10% foetal calf serum, L-glutamine and antibiotics. The cells were then plated into 24 well plates (4×10^5 cell/well) and incubated overnight at 37° C. with 5% CO2 in air to allow cell adherence. The exhausted medium was then removed from the plates and the plates rinsed briefly with fresh medium before the addition of test compound solutions. The test compounds were incubated with the cells for 30 minutes before the addition of E. Coli LPS (1 μg/ml). The assay plates were incubated in a humidified incubator at 37° C. with 5% CO2 in air for 24 hours. The release of TNFα by the cells into the culture supernatants was quantified using an ELISA kit (DuoSet® human TNFα ELSIA Development System) supplied by R+D Systems (Europe) according to the manufacturer's instruction. Indomethacin at 3 μM was included in all treatments to inhibit the possible release of endogenous prostaglandin E2.
# [7] = mean of three to five donors (FIG. 10, table 8)
# [8] = mean of four donors (FIG. 9, table 7)
# T1 sequence (P43116 whole entry): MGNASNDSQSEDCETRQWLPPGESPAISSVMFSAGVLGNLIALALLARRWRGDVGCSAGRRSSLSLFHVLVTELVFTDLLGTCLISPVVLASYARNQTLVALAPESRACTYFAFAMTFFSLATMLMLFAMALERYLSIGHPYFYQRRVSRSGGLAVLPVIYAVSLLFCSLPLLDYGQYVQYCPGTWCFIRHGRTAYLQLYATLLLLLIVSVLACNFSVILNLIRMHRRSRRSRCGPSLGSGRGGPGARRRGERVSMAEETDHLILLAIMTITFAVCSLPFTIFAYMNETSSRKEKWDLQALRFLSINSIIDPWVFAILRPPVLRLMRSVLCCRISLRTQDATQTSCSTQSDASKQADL
# T3 sequence (P35408 whole entry): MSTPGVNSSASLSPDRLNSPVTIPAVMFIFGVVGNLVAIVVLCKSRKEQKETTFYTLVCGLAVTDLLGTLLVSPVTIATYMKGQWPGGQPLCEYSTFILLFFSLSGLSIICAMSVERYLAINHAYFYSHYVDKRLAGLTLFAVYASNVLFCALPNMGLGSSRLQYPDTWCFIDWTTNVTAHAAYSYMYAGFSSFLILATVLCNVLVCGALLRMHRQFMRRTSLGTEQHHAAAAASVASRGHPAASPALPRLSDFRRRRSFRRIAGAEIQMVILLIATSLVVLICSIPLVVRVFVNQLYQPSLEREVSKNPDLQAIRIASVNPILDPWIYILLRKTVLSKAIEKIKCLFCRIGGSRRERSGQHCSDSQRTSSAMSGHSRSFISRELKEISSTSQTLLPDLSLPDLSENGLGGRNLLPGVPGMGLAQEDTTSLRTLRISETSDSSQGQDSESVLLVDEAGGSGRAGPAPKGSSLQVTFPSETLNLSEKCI
Compound,EC50 [1],Mean Log (EC50) [1],EC50 (lymphocyte proliferation),Mean Log (EC50) (lymphocyte proliferation),"EC50 [2, 7]","Mean Log (EC50) [2, 7]",EC50 (human EP2 receptor [4]),Ki (human EP2 receptor [5]),Ki (human EP3 receptor),Ki (human EP4 receptor),further results
butaprost,292 nM,−6.535,996 nM,−6.015,124 nM,−6.906,,,,,
"CC(C)(C)NCC(O)c1cc(O)cc(O)c1 (stereo not shown) [terbutaline, reference compound]",,,,,,,,,,,% of the control EFS-induced contraction [3]: 98±5%
"CCCCC[C@@H](O)c1ccc([C@@H]2CCC(=O)[C@H]2CCCCCCC(=O)O)cc1 (single isomer, unassigned) [Peak 2, Mixture 2 acid]",,,,,,,407 nM,501 nM,20000 nM,15800 nM,
"CCCCC[C@H](O)/C=C/[C@H]1[C@H](O)CC(=O)[C@@H]1C/C=C\CCCC(=O)O [PGE2, prostaglandin E2]",10.7 nM,−7.971,25.8 nM,−7.589,21.1 nM,−7.677,,,,,"EC50 ([6]; read-out: Mean EC50): 125 nM; Mean Log (EC50) ([6]; log scale): −6.904; EC50 [2, 8]: 28 nM; Mean Log (EC50) [2, 8]: −7.554"
"CCCCC[C@H](O)c1ccc([C@@H]2CCC(=O)[C@H]2CCCCCCC(=O)O)cc1 (single isomer, unassigned) [Peak 2, Mixture 1 acid]",,,,,,,323 nM,1580 nM,15800 nM,31600 nM,
